Legend:
[1] = test system: human surgical skin (skin resident immune cells), LPS; experiment: skin Resident Immune Cell Assay (sRICA), topical screening, TNFα protein expression; format: cell-based; settings: mean TNFα level in LPS treated samples set to 100%
Procedure: A skin Resident Immune Cell Assay (sRICA) was used to test compounds for reduction of inflammation. In this model, human surgical skin waste was cultured in a transwell system, with the dermis in contact with cell culture media and the stratum corneum exposed to air. To perform the assay, each human skin sample was defatted and dermatomed to 750 μm. Next, 8 mm punch biopsies were obtained and placed in a membrane transwell. The transwells were inserted into culture wells with complete media, and a cocktail of cytokines and antibodies were added to promote skin resident immune cell polarization. The transwells were treated with LPS as a positive control, a vehicle as a negative control, and various dual IRAK/TrkA inhibitors. TNFα protein expression was measured and the mean TNFa protein level in the LPS treated samples was set to 100%.
Overall results for all tested compounds are summarized below in Table 1. Results are expressed as a percentage of TNFα expression relative to the LPS treated sample.

[2] = test system: rosacea lesional (LS) skin; experiment: OLink proteomics of treated lesional papulopustular rosacea biopsies; format: cell-based, human; settings: LS rosacea biopsy
Procedure: (§1) Five patients with mild-moderate, untreated, papulopustular rosacea (PPR) were enrolled and completed the study. Each patient donated 3 punch biopsies: 1 non-lesional (NL) and 2 lesional (LS) papules. Each biopsy was bisected, resulting in a total of 6 biopsy pieces. NL tissue was left untreated. LS tissue was either left untreated (vehicle), treated with a dual IRAK/TrkA inhibitor according to the present disclosure (1 uM or 500 uM) or clobetasol (1 uM). Tissue was cultured in media at 37 C, 5% CO2 for 24 hours. After culture, the tissue was submerged in RNAlater for subsequent RNA isolation and RNA seq, and conditioned cell media was collected into 2×500 ul aliquots for proteomic analysis.
Proteomic analysis included use of the OLink platform. OLink proteomics, includes immunoassay, extension, preamplification, and detection by microfluidic qPCR, and has a high multiplex ability, but not absolute quantification of protein (only relative expression).
For the OLink proteomics platform, 40 μl of conditioned cell media was sent to OLINK proteomics for evaluation on their human Inflammation Panel (92 proteins):
Protein expression was measured from NL samples, untreated LS samples, and LS samples treated with the compound of Formula (Ia) at 1 μM, the compound of Formula (Ia) at 0.5 μM, or clobetasol at 1 μM. […] CXCL1, β-NGF, LIF, TGF-alpha, IL-8, and IL-6 are all proteins that have reduced expression in NL compared to LS samples.

[3] = test system: rosacea lesional (LS) skin; experiment: MesoScale Discovery (MSD) immunoassay of treated lesional papulopustular rosacea biopsies; format: cell-based, human
Procedure: as §1
Next, the protein expression results obtained using the OLink platform were verified using MesoScale Discovery (MSD). MSD involves coating of carbon electrodes with multiple capture antibodies each coated onto discrete spots in the same plate, and is a multiplex platform that allows for absolute quantification of protein expression, as measured in pg/mL. For MSD quantification, 150 μl of conditioned cell media was analyzed using MSD platform using the human Cytokine 30-plex kit:
The protein expression analysis was repeated using the MSD platform.

[4] = test system: rosacea lesional (LS) skin; experiment: RNAseq of treated lesional papulopustular rosacea biopsies; format: cell-based, human; settings: LS rosacea biopsy, 24 hours culture, 1 μM and 0.5 μM
Procedure: as §1, with “LS tissue was either left untreated (vehicle), treated with a dual IRAK/TrkA inhibitor according to the present disclosure (1 uM or 500 uM) or clobetasol (1 uM).” left out
MMP-1 results are shown in FIG. 4A (RNAseq) and FIG. 4B (OLink); CXCL5 results are shown in FIG. 5A (RNAseq) and FIG. 5B (OLink); and IL-1(3 results are shown in FIG. 6A (RNAseq) and FIG. 6B (OLink).

[5] = 24 hours following treatment, 1 μM and 0.5 μM

## Cn1cc(NC(=O)c2coc(-c3ccnc(NCC(F)(F)F)c3)n2)c(N2CCNC2=O)n1
[1]
  TNFα Protein Expression (% relative to positive control): 59.13%

## C=C(CC1=CC(C)C=C1C1CCC(CCC)C1=C)C1=CCC(c2cccc(CCC(C)(C)C)c2)=C1 (centres unmarked)
[1]
  TNFα Protein Expression (% relative to positive control): 64.03%

## CNCC1CN(c2nn(C)cc2NC(=O)c2coc(-c3ccnc(NCC(F)(F)F)c3)n2)C(=O)C1(C)C (centres unmarked) [drawing 29]
[1]
  TNFα Protein Expression (% relative to positive control): 92.45%

## CN(C)CC1CN(c2nn(C)cc2NC(=O)c2coc(-c3ccnc(NCC(F)(F)F)c3)n2)C(=O)C1(C)C (centres unmarked)
[1]
  TNFα Protein Expression (% relative to positive control): 86.94%

## CC1(C)CCN(c2nn(C3COC3)cc2NC(=O)c2coc(-c3ccnc(NCC(F)(F)F)c3)n2)C1=O
[1]
  TNFα Protein Expression (% relative to positive control): 97.84%

## Cn1cc(NC(=O)c2coc(-c3ccnc(NCC(F)(F)F)c3)n2)c(N2CC(CNC3CC3)C(C)(C)C2=O)n1 (centres unmarked)
[1]
  TNFα Protein Expression (% relative to positive control): 72.95%

## Cn1cc(NC(=O)c2coc(-c3ccnc(NCC4CC4)c3)n2)c(N2CCN(CCO)C2=O)n1
[1]
  TNFα Protein Expression (% relative to positive control): 74.41%

## CC1C=C(CC(=O)c2coc(-c3ccnc(NCC(F)(F)F)c3)c2)C(C2CC(C)[C@H](C)C2=O)=C1 (some centres unmarked)
[1]
  TNFα Protein Expression (% relative to positive control): 67.49%

## Cn1cc(NC(=O)c2coc(-c3ccnc(NCC(F)(F)F)c3)n2)c(N2CCN(CCO)C2=O)n1 [Formula (Ia)]
[2]; 24 hours following treatment
  CXCL6 protein expression (OLink): decreased expression
  IL-24 protein expression (OLink): decreased expression
  MCP-1 protein expression (OLink): decreased expression
  NRTN protein expression (OLink): decreased expression
[2]; [5]
  CXCL1 protein expression (OLink): statistically significant decrease in expression
  IL-6 protein expression (OLink): statistically significant decrease in expression
  IL-8 protein expression (OLink): statistically significant decrease in expression
  LIF protein expression (OLink): statistically significant decrease in expression
  TGF-alpha protein expression (OLink): statistically significant decrease in expression
  β NGF protein expression (OLink): statistically significant decrease in expression
[2]; 24 hours, 1 μM and 0.5 μM
  CXCL5 protein expression (OLink): downregulated
  MMP-1 protein expression (OLink): downregulated
[3]; compared with NL and LS profiles
  protein expression profile (MSD): more similar to the NL profile versus the LS profile
[3]; p=0.002
  IL-10 protein expression (MSD): decreased expression
[3]; p=0.056
  IL-8 protein expression (MSD): decreased expression
[3]; p=0.09
  MCP-1 protein expression (MSD): decreased expression
[3]; p=0.12
  IL-4 protein expression (MSD): decreased expression
[3]; p=0.13
  IL-6 protein expression (MSD): decreased expression
[3]; p=0.2
  IL-5 protein expression (MSD): decreased expression
[4]
  CXCL5 RNA expression (RNAseq): significantly downregulated
  IL-1β RNA expression (RNAseq): significantly downregulated
  MMP-1 RNA expression (RNAseq): significantly downregulated

## CNCC1CN(c2nn(C)cc2NC(=O)c2coc(-c3ccnc(NCC(F)(F)F)c3)n2)C(=O)C1(C)C (centres unmarked) [drawing 30]
[1]
  TNFα Protein Expression (% relative to positive control): 93.64%

## Cn1cc(NC(=O)c2coc(-c3ccnc(NCC(F)F)c3)n2)c(N2CCN(CCO)C2=O)n1
[1]
  TNFα Protein Expression (% relative to positive control): 72.75%

## CC(C)N1CCN(c2nn(C)cc2NC(=O)c2coc(-c3ccnc(NCC(F)(F)F)c3)n2)C1=O
[1]
  TNFα Protein Expression (% relative to positive control): 90.44%

## C[C@H]1CCN(c2nn(C)cc2NC(=O)c2coc(-c3ccnc(NCC(F)(F)F)c3)n2)C1=O
[1]
  TNFα Protein Expression (% relative to positive control): 92.45%

## CC(C)CN1CCN(c2nn(C)cc2NC(=O)c2coc(-c3ccnc(NCC(F)(F)F)c3)n2)C1=O
[1]
  TNFα Protein Expression (% relative to positive control): 89.24%

— patent US20230125380A1, “Topical Compositions Comprising IRAK4 Inhibitors for Use in Treating Dermatological Conditions Characterised by Inflammation” (Dermira, Inc., priority 2019, published 2023)
